Assay results: US8173645B2 (Takeda San Diego, Inc., priority 2007, dated 2012)

Target: T1, glucokinase (GK), residues 12-465 of the human enzyme (Homo sapiens, UniProt P35557)
T1 construct: I.D. No. 1 corresponds to residues 12-465 of glucokinase; made in house; host or cells: E. coli DH10b-Tlr
T1 sequence (P35557 with tags, fused parts or gaps isoform P35557-2): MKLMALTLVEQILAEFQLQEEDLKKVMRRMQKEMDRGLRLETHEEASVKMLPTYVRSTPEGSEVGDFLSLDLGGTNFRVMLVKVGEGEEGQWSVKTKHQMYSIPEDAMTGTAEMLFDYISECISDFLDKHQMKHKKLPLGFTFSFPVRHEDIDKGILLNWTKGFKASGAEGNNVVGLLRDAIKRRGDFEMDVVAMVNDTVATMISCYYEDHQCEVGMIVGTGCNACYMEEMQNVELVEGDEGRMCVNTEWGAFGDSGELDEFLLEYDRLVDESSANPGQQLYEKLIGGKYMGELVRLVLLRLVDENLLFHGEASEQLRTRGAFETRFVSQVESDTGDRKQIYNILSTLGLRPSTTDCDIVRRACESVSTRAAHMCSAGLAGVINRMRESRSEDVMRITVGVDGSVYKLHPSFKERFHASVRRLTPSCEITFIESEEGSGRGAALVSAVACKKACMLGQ
Test: Enzymatic glucokinase activity assay (KinaseGlo luminescence, ATP consumption)
Format: biochemical
Conditions: 5 μM ATP, 5 mM Glucose; for EC50: GK activation, Kact = concentration giving 50% of the maximal increase in GK activity, read-out: pKact; for Emax: calculated maximal gain in GK enzyme activity at a saturating concentration of the compound, read-out: % ACTmax
In short: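 Activation measured as ATP consumption: residual ATP detected by KinaseGlo luminescence after 60 min at room temperature with 5 μM ATP and 5 mM glucose (Hepes pH 7.2, MgCl2, Brij35, DTT, 2% DMSO). Enzyme was recombinant FLAG-tagged protein from E. coli. Eleven-point twofold series were fitted nonlinearly for pKact and % ACTmax.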

Row | EC50 [nM] | Emax [%] | Compound
1 | ≤ 631 | ≥ 119 | O=C(Nc1nccs1)[C@H](CC1CCCCC1)N1CCN(S(=O)(=O)C2CCCC2)CC1=O [Example 113, (S)-3-cyclohexyl-2-(4-(cyclopentylsulfonyl)-2-oxopiperazin-1-yl-N-thiazol-2-yl)propanamide]
2 | ≤ 631 | 97.1 to 107 | O=C(Nc1nccs1)[C@H](CC1CCCCC1)N1CCN(S(=O)(=O)c2cc(F)cc(F)c2)CC1=O [Example 105, (S)-3-cyclohexyl-2-(4-(3,5-difluorophenylsulfonyl)-2-oxopiperazin-1-yl)-N-(thiazol-2-yl)propanamide]
3 | ≤ 631 | ≥ 119 | O=C(Nc1ncc(F)s1)[C@H](CC1CCOCC1)N1CCN(S(=O)(=O)c2cccc(F)c2)CC1=O [Example 152, (S)-2-(4-(3-fluorophenylsulfonyl)-2-oxopiperazin-1-yl)-N-(5-fluorothiazol-2-yl)-3-(tetrahydro-2H-pyran-4-yl)propanamide]
4 | ≥ 3160 | ≤ 74 | Cn1nc(-c2ccc(S(=O)(=O)N3CCN([C@@H](CC4CCCCC4)C(=O)Nc4nccs4)C(=O)C3)s2)cc1C(F)(F)F [Example 175, (S)-3-cyclohexyl-2-(4-(5-(1-methyl-5-(trifluoromethyl)-1H-pyrazol-3-yl)thiophen-2-ylsulfonyl)-2-oxopiperazin-1-yl)-N-(thiazol-2-yl)propanamide]
5 | ≤ 631 | ≥ 119 | O=C(Nc1nccs1)[C@H](CC1CCCCC1)N1CCN(S(=O)(=O)c2cccc3nonc23)CC1=O [Example 176, (S)-2-(4-(benzo[c][1,2,5]oxadiazol-4-ylsulfonyl)-2-oxopiperazin-1-yl)-3-cyclohexyl-N-(thiazol-2-yl)propanamide]
6 | 1580 to 2510 | 108 to 119 | Cn1cc(S(=O)(=O)N2CCN([C@@H](CC3CCCCC3)C(=O)Nc3nccs3)C(=O)C2)c(C(F)(F)F)n1 [Example 198, (S)-3-cyclohexyl-2-(4-(1-methyl-3-(trifluoromethyl)-1H-pyrazol-4-ylsulfonyl)-2-oxopiperazin-1-yl)-N-(thiazol-2-yl)propanamide]
7 | 794 to 1260 | 108 to 119 | Cc1ccccc1S(=O)(=O)N1CCN([C@@H](CC2CCCCC2)C(=O)Nc2nccs2)C(=O)C1 [Example 218, (S)-3-cyclohexyl-2-(2-oxo-4-(o-tolylsulfonyl)piperazin-1-yl)-N-(thiazol-2-yl)propanamide]
8 | ≤ 631 | ≥ 119 | O=C(Nc1nccs1)[C@H](CC1CCCCC1)N1CCN(S(=O)(=O)C2CCCCC2)CC1=O [Example 227]
9 | ≥ 3160 | 108 to 119 | O=C(Nc1nccs1)[C@H](CC1CCCCC1)N1CCN(C(=S)Nc2ccc(F)cc2)CC1=O [Example 83, (S)-3-cyclohexyl-2-(4-(4-fluorophenylcarbamothioyl)-2-oxopiperazin-1-yl)N-(thiazol-2-yl)propanamide]
10 | ≤ 631 | 108 to 119 | O=C(Nc1nccs1)[C@H](CC1CCCCC1)N1CCN(S(=O)(=O)c2cccc(Br)c2)CC1=O [Example 232, (S)-2-(4-(3-bromophenylsulfonyl)-2-oxopiperazin-1-yl)-3-cyclohexyl-N-(thiazol-2-yl)propanamide]
11 | ≥ 3160 | 74.1 to 97 | O=C(Nc1nccs1)[C@H](CC1CCCCC1)N1CCN(C(=S)Nc2ccc(Cl)c(Cl)c2)CC1=O [Example 87, (S)-3-cyclohexyl-2-(4-(3,4-dichlorophenylcarbamothioyl)-2-oxopiperazin-1-yl)-N-(thiazol-2-yl)propanamide]
12 | ≥ 3160 | ≤ 74 | O=C(Nc1nccs1)[C@H](CC1CCCCC1)N1CCN(C(=O)Nc2ccc(Cl)c(Cl)c2)CC1=O [Example 131, (S)-4-(3-cyclohexyl-1-oxo-1-(thiazol-2-ylamino)propan-2-yl)-N-(3,4-dichlorophenyl)-3-oxopiperazine-1-carboxamide]
13 | 794 to 1260 | 108 to 119 | O=C(Nc1nccs1)[C@H](CC1CCCCC1)N1CCN(S(=O)(=O)c2cccc(OC(F)F)c2)CC1=O [Example 106, (S)-3-cyclohexyl-2-(4-(3-(difluoromethoxy)phenylsulfonyl)-2-oxopiperazin-1-yl)-N-(thiazol-2-yl)propanamide]
14 | ≥ 3160 | 74.1 to 97 | Cc1noc(C)c1S(=O)(=O)N1CCN([C@@H](CC2CCCCC2)C(=O)Nc2nccs2)C(=O)C1 [Example 173, (S)-3-cyclohexyl-2-(4-(3,5-dimethylisoxazol-4-ylsulfonyl)-2-oxopiperazin-1-yl)-N-(thiazol-2-yl)propanamide]
15 | ≥ 3160 | ≤ 74 | N#Cc1ccc(NC(=O)N2CCN([C@@H](CC3CCCCC3)C(=O)Nc3nccs3)C(=O)C2)cc1 [Example 132, (S)-N-(4-cyanophenyl)-4-(3-cyclohexyl-1-oxo-1-(thiazol-2-ylamino)propan-2-yl)-3-oxopiperazine-1-carboxamide]
16 | 1580 to 2510 | 97.1 to 107 | O=C(Nc1nccs1)[C@H](CC1CCCCC1)N1CCN(C(=S)NC2CC2)CC1=O [Example 129, (S)-3-cyclohexyl-2-(4-(cyclopropylcarbamothioyl)-2-oxopiperazin-1-yl)-N-(thiazol-2-yl)propanamide]
17 | ≥ 3160 | ≤ 74 | O=C(Nc1nccs1)[C@H](CC1CCCCC1)N1CCN(C(=S)Nc2ccc(C(F)(F)F)cc2)CC1=O [Example 85, (S)-3-cyclohexyl-2-(2-oxo-4-(4-(trifluoromethyl)phenylcarbamothioyl)piperazin-1-yl)-N-(thiazol-2-yl)propanamide]
18 | 794 to 1260 | ≥ 119 | O=C(Nc1nccs1)[C@H](CC1CCCCC1)N1CCN(C(=S)Nc2ccccc2OC(F)(F)F)CC1=O [Example 136, (S)-3-cyclohexyl-2-(2-oxo-4-(2-(trifluoromethoxy)phenylcarbamothioyl)piperazin-1-yl)-N-(thiazol-2-yl)propanamide]
19 | 1580 to 2510 | 74.1 to 97 | O=C(Nc1nccs1)[C@H](CC1CCCCC1)N1CCN(S(=O)(=O)Cc2cccc(C(F)(F)F)c2)CC1=O [Example 213, (S)-3-cyclohexyl-2-(2-oxo-4-(3-(trifluoromethyl)benzylsulfonyl)piperazin-1-yl)-N-(thiazol-2-yl)propanamide]
